“And” between values parts separate entries of the source, which are not always exact repeats. Equal entries are not always repeated. Numbered stars: 1 amine (or outer) side, 2 acyl side, 3 side chain; on linkers, the order of the positions; unused ones are H or OH. Side chains are listed from the residue outwards. Ends that are not written are not given here. Peptide text beside a SMILES is read from it. * marks the point of attachment. γGlu = O=C(O)[C@H](CCC(=O)[*:2])N[*:1]; Palmitoyl = CCCCCCCCCCCCCCCC(=O)*

This note sets out measurements from patent US20200354426A1 (MEDIMMUNE LIMITED, priority 2016, published 2020).

Data set [1] addresses T1, Human GIPr (Homo sapiens, UniProt P48546).
T1 construct: expressed in transfected cells
T1 sequence (P48546 22-466): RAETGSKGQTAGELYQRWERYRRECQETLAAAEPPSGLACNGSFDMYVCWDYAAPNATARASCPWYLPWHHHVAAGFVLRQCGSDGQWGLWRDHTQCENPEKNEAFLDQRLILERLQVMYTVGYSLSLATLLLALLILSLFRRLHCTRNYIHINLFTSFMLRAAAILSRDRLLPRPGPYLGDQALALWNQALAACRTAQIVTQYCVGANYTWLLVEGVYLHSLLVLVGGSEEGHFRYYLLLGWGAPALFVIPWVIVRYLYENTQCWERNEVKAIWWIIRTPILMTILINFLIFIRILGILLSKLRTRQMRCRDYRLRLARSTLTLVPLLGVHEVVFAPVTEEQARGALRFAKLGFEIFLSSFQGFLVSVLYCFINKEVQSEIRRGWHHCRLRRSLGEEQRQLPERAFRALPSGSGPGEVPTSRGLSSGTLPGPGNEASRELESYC
Nature of the data set: cAMP activity assay in assay medium (assay 1). The class given is cell-based. Particulars: assay medium; Table 4; read-out: hGIPR EC50. The source says: (§1) Biological Activity of Peptides in Cell-Based cAMP Activity Assay (Assay 1):
(§2) All sample dilutions were made in duplicate.

Data set [2] addresses T2, Human GlucR (Homo sapiens, UniProt P47871).
T2 construct: expressed in transfected cells
Briefly: cAMP activity assay in assay medium (assay 1). Particulars: assay medium; Table 4; read-out: hGlucR EC50. It counts as cell-based.
Description: as §1, §2

For data set [3], the target named is Human GLP1R (Homo sapiens, UniProt P43220). Nature of the data set: cAMP activity assay in assay medium (assay 1). It counts as cell-based. Also on record: expressed in transfected cells. Particulars: assay medium; Table 4; read-out: hGLP1R EC50.
Description: as §1, §2

Data set [4] is described as follows: rat plasma (frozen blank plasma, thawed). Particulars: 37° C., up to 48 hours.
A short description of data set [5]: mouse plasma (frozen blank plasma, thawed). Particulars: 37° C., up to 48 hours.
Data set [6] in a line: human plasma (frozen blank plasma, thawed). Particulars: 37° C., up to 48 hours.

Human GLP1R, sequence (P43220 24-463): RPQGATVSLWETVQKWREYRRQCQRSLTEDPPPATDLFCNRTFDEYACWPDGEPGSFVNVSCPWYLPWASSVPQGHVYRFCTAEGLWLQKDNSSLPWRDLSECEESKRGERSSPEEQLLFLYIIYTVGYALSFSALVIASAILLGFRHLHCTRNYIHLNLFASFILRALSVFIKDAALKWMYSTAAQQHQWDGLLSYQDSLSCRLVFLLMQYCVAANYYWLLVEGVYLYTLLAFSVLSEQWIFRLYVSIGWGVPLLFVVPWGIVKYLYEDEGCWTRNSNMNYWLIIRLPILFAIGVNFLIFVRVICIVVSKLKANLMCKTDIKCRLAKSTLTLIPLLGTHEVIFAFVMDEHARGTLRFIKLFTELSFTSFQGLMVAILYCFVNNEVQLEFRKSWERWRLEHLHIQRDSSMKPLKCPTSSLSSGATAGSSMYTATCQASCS
T2 sequence (P47871 26-477): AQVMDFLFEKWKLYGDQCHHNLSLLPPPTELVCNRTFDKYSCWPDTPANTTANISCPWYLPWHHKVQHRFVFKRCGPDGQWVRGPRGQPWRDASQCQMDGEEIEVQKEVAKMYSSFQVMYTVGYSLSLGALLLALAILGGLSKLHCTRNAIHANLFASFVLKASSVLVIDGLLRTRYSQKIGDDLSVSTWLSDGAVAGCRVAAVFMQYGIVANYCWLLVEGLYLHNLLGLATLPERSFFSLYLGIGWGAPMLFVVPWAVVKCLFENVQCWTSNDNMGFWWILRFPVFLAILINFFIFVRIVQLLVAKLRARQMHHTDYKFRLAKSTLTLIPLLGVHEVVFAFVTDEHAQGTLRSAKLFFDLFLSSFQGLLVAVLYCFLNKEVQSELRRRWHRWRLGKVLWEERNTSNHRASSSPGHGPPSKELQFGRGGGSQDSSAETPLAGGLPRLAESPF

Consider `CCCCCCCCCCCCCCCC(=O)N[C@@H](CCC(=O)NCCCC[C@H](NC(=O)[C@H](Cc1ccc(O)cc1)NC(=O)[C@H](CCC(=O)O)NC(=O)[C@H](CO)NC(=O)[C@H](Cc1ccc(O)cc1)NC(=O)[C@H](CC(=O)O)NC(=O)[C@H](CO)NC(=O)[C@@H](NC(=O)[C@H](Cc1ccccc1)NC(=O)[C@@H](NC(=O)CNC(=O)[C@H](CCC(N)=O)NC(=O)[C@H](CO)NC(=O)[C@@H](N)Cc1c[nH]cn1)[C@@H](C)O)[C@@H](C)O)C(=O)N[C@@H](CC(=O)O)C(=O)N[C@@H](CO)C(=O)N[C@@H](CCC(=O)O)C(=O)N[C@@H](CCCNC(=N)N)C(=O)N[C@@H](C)C(=O)N[C@@H](CCCNC(=N)N)C(=O)N[C@@H](CC(=O)O)C(=O)N[C@@H](Cc1ccccc1)C(=O)N[C@H](C(=O)N[C@@H](C)C(=O)N[C@@H](Cc1c[nH]c2ccccc12)C(=O)N[C@@H](CC(C)C)C(=O)N[C@H](C(=O)N[C@@H](C)C(=O)NCC(=O)NCC(N)=O)C(C)C)C(C)C)C(=O)O` [g846] (H-HSQGTFTSDYSEYK([γGlu-Palmitoyl])DSERARDFVAWLVAGG-NH2; N-terminus assumed), for which the figures for the EC50 in data set [1], in data set [2] and in data set [3] were 11800 pM, 34.1 pM and 43.8 pM, respectively.

In the case of `CCCCCCCCCCCCCCCC(=O)N[C@@H](CCC(=O)NCCCC[C@H](NC(=O)[C@H](CO)NC(=O)[C@H](CC(=O)O)NC(=O)[C@H](CC(C)C)NC(=O)[C@H](Cc1ccc(O)cc1)NC(=O)[C@H](CCCCN)NC(=O)[C@H](CO)NC(=O)[C@H](Cc1ccc(O)cc1)NC(=O)[C@H](CC(=O)O)NC(=O)[C@H](CO)NC(=O)[C@@H](NC(=O)[C@H](Cc1ccccc1)NC(=O)[C@@H](NC(=O)CNC(=O)[C@H](CCC(N)=O)NC(=O)[C@H](CO)NC(=O)[C@@H](N)Cc1c[nH]cn1)[C@@H](C)O)[C@@H](C)O)C(=O)N[C@@H](CCCNC(=N)N)C(=O)N[C@@H](C)C(=O)N[C@@H](CCCNC(=N)N)C(=O)N[C@@H](CC(=O)O)C(=O)N[C@@H](Cc1ccccc1)C(=O)N[C@H](C(=O)N[C@@H](C)C(=O)N[C@@H](Cc1c[nH]c2ccccc12)C(=O)N[C@@H](CC(C)C)C(=O)N[C@H](C(=O)N[C@@H](C)C(=O)NCC(=O)NCC(N)=O)C(C)C)C(C)C)C(=O)O` [g867] (H-HSQGTFTSDYSKYLDSK([γGlu-Palmitoyl])RARDFVAWLVAGG-NH2; N-terminus assumed), the EC50 (in general, the midpoint of the concentration-response curve) in data set [1] came out at 41700 pM; in data set [2], 7.04 pM; in data set [3], 44.8 pM.

As to `CCCCCCCCCCCCCCCC(=O)N[C@@H](CCC(=O)NCCCC[C@H](NC(=O)[C@H](Cc1ccc(O)cc1)NC(=O)[C@H](CCC(=O)O)NC(=O)[C@H](CO)NC(=O)[C@H](Cc1ccc(O)cc1)NC(=O)[C@H](CC(=O)O)NC(=O)[C@H](CO)NC(=O)[C@@H](NC(=O)[C@H](Cc1ccccc1)NC(=O)[C@@H](NC(=O)CNC(=O)[C@H](CCC(N)=O)NC(=O)[C@H](CO)NC(=O)[C@@H](N)Cc1c[nH]cn1)[C@@H](C)O)[C@@H](C)O)C(=O)N[C@@H](CC(=O)O)C(=O)N[C@@H](CO)C(=O)N[C@@H](CCCNC(=N)N)C(=O)N[C@@H](CCCNC(=N)N)C(=O)N[C@@H](C)C(=O)N[C@@H](CCCNC(=N)N)C(=O)N[C@@H](CC(=O)O)C(=O)N[C@@H](Cc1ccccc1)C(=O)N[C@H](C(=O)N[C@@H](CCC(=O)O)C(=O)N[C@@H](Cc1c[nH]c2ccccc12)C(=O)N[C@@H](CC(C)C)C(=O)N[C@@H](CCC(=O)O)C(=O)N[C@@H](C)C(=O)NCC(=O)NCC(N)=O)C(C)C)C(=O)O` [g876] (H-HSQGTFTSDYSEYK([γGlu-Palmitoyl])DSRRARDFVEWLEAGG-NH2; N-terminus assumed), the EC50 in data set [1] was found to be 79000 pM; in data set [2], 10.4 pM; in data set [3], 86.3 pM.

On to “HSQGTFTSDXSEYLDSERARDFVAWLEAGG-amide ×10 = K(gE-palm)”, for which the fragment found entry in data set [4] is “DPP cleaved product, minor”; in data set [5], “DPP cleaved product, minor”.

Turning to “HSQGTFTSDXSRYLDSRSARDFVAWLEAGG-amide ×10 = K(gE-palm)”, the fragment found entry in data set [4] and in data set [5] was “DPP cleaved product” in each case. In data set [6], this compound showed a not cleaved of 100% stable peptide at 24 h.

For the compound “HSQGTFTSDYSKXLDSERARDFVAWLVAGG-amide ×13 = K(gE-palm)”, the fragment found entry was “DPP cleaved product” in data set [4]; “DPP cleaved product and +1 DPP cleaved product” in data set [5]. For the same compound, the not cleaved in data set [6] is listed as 100% stable peptide at 24 h.

As to “HSQGTFTSDYSKYLDSERARDFVAWLEAGG-NH2 [g840]”, the EC50 in data set [1] came out at 102000 pM; in data set [2] it was 5.3 pM; in data set [3] it was 145 pM.

Take “HSQGTFTSDYSKYLDSRRAQDFVQWLVRGGKNNRNNIAK-NH2 [g321]”: the EC50 was 6410 pM in data set [1], 27.9 pM in data set [2] and 27.2 pM in data set [3].
